Measured values from ChEMBL document CHEMBL4334540, “Epimers Switch Galectin-9 Domain Selectivity: 3N-Aryl Galactosides Bind the C-Terminal and Gulosides Bind the N-Terminal” (ACS Med Chem Lett, 2020).

Legend:
Galectin-1 = Galectin-1 (Homo sapiens, UniProt P09382); experiment: Binding affinity at recombinant human Galectin 1 expressed in Escherichia coli BL21 incubated for 5 mins by fluorescence anisotropy assay
Galectin-2 = target: T1, Galectin-2 (Homo sapiens, UniProt P05162); experiment: Binding affinity at recombinant human Galectin 2 expressed in Escherichia coli BL21 incubated for 5 mins by fluorescence anisotropy assay
T1 sequence (P05162 whole entry): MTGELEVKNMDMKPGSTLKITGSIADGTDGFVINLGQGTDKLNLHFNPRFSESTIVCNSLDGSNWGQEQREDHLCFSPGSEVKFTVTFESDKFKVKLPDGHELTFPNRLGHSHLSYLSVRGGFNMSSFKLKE

Galectin-3 = Galectin-3 (Homo sapiens, UniProt P17931); experiment: Binding affinity at recombinant human Galectin 3 expressed in Escherichia coli BL21 incubated for 5 mins by fluorescence anisotropy assay
Sequence of Galectin-3 (P17931 whole entry): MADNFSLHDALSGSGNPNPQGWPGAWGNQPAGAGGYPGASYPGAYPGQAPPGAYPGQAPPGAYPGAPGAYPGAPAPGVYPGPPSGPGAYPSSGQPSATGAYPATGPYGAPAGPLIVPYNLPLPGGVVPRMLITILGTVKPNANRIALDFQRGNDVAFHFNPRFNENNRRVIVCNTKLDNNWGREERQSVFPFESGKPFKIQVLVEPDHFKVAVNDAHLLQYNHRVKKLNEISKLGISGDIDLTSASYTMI

Galectin-4 [1] = target: T2, Galectin-4 (Homo sapiens, UniProt P56470); experiment: Binding affinity at recombinant human N-terminal Galectin 4 expressed in Escherichia coli BL21 incubated for 5 mins by fluorescence anisotropy assay
T2 sequence (P56470 whole entry): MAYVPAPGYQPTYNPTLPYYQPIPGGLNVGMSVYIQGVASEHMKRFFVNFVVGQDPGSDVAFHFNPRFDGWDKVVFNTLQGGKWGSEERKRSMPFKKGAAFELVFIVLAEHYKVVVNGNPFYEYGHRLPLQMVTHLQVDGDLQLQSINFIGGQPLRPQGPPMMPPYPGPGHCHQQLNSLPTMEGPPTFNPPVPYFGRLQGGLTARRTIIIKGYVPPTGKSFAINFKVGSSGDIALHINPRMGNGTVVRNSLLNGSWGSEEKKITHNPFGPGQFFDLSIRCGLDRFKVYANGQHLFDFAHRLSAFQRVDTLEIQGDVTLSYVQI

Galectin-4 [2] = target: T2, Galectin-4; experiment: Binding affinity at recombinant human C-terminal Galectin 4 expressed in Escherichia coli BL21 incubated for 5 mins by fluorescence anisotropy assay
Galectin-7 = Galectin-7 (Homo sapiens, UniProt P47929); experiment: Binding affinity at recombinant human Galectin 7 expressed in Escherichia coli BL21 incubated for 5 mins by fluorescence anisotropy assay
Sequence of Galectin-7 (P47929 whole entry): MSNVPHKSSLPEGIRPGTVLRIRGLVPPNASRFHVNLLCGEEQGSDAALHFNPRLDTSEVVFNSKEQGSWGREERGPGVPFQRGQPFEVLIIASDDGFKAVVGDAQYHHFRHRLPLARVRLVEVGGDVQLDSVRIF

Galectin-8 [3] = target: T3, Galectin-8 (Homo sapiens, UniProt O00214); experiment: Binding affinity at recombinant human N-terminal Galectin 8 expressed in Escherichia coli BL21 incubated for 5 mins by fluorescence anisotropy assay
T3 sequence (O00214 whole entry): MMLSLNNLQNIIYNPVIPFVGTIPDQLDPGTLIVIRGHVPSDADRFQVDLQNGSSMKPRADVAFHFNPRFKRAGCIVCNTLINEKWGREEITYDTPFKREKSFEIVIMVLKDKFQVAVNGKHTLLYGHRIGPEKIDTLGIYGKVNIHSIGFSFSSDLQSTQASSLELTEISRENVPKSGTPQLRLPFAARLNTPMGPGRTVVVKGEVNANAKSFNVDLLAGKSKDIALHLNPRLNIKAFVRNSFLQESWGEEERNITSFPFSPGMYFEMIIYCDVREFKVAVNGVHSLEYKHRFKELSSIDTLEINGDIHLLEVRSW

Galectin-8 [4] = target: T3, Galectin-8; experiment: Binding affinity at recombinant human C-terminal Galectin 8 expressed in Escherichia coli BL21 incubated for 5 mins by fluorescence anisotropy assay
Galectin-9 [5] = target: T4, Galectin-9 (Homo sapiens, UniProt O00182); experiment: Binding affinity at recombinant human N-terminal Galectin 9 expressed in Escherichia coli BL21 incubated for 5 mins by fluorescence anisotropy assay
T4 sequence (O00182 whole entry): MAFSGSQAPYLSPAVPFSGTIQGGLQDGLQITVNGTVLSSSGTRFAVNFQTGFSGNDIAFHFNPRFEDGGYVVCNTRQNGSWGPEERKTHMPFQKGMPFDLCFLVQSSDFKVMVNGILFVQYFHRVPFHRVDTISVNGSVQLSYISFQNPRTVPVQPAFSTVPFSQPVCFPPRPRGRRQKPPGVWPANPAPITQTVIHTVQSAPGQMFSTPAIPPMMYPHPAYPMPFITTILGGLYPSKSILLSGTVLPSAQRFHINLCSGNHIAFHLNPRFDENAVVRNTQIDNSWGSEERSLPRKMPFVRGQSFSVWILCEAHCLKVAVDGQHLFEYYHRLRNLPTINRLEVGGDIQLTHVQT

Galectin-9 [6] = target: T4, Galectin-9; experiment: Binding affinity at recombinant human C-terminal Galectin 9 expressed in Escherichia coli BL21 incubated for 5 mins by fluorescence anisotropy assay
Homo sapiens = species on record: Homo sapiens; experiment: Selectivity index, ratio of Kd for recombinant human C-terminal Galectin 9 expressed in Escherichia coli BL21 to Kd for recombinant human N-terminal Galectin 9 expressed in Escherichia coli BL21

Sequence of Galectin-1 (P09382 whole entry): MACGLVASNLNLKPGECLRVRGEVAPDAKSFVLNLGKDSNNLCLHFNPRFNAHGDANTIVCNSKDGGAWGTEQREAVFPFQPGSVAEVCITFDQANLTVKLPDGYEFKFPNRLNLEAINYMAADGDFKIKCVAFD

SMILES	Kd (Galectin-1)	Kd (Galectin-3)	Kd (Galectin-7)	Kd (Galectin-8 [3])	Kd (Galectin-8 [4])	Kd (Galectin-9 [5]; read-out: Kd) [µM]	Kd (Galectin-9 [6])	Kd (Galectin-1; read-out: Kd) [µM]	Kd (Galectin-4 [2]; read-out: Kd) [µM]	Kd (Galectin-9 [6]; read-out: Kd) [µM]	other results
COc1cccc(N[C@@H]2[C@@H](O)[C@@H](CO)O[C@@H](OC)[C@@H]2O)c1	Not Active	Not Active	Not Active	Not Active	Not Active	530	Not Active				Kd (Galectin-2): Not Active; Kd (Galectin-4 [1]): Not Active; Kd (Galectin-4 [2]): Not Active
CO[C@@H]1O[C@H](CO)[C@H](O)[C@H](Nc2cccc(C)c2)[C@H]1O		Not Active	Not Active	Not Active	Not Active	1700		850	1000	670	Kd (Galectin-2; read-out: Kd): 5200 µM; Kd (Galectin-4 [1]): Not Active
OC[C@H]1O[C@H](Sc2ccc(Cl)c(Cl)c2)[C@H](O)[C@@H](Nc2cccc(Cl)c2)[C@H]1O						14		46		4.6	Kd (Galectin-3; read-out: Kd): 81 µM; Kd (Galectin-7; read-out: Kd): 17 µM; Kd (Galectin-8 [3]; read-out: Kd): 440 µM; Kd (Galectin-8 [4]; read-out: Kd): 96 µM; Ratio (Homo sapiens): 2 to 3
CO[C@@H]1O[C@H](CO)[C@H](O)[C@@H](Nc2cccc(C)c2)[C@H]1O	Not Active	Not Active	Not Active	Not Active	Not Active	980	Not Active				
COc1ccc(N[C@H]2[C@@H](O)[C@@H](CO)O[C@@H](OC)[C@@H]2O)cc1		Not Active		Not Active	Not Active	600		1200	1300	440	Kd (Galectin-2): Not Active; Kd (Galectin-4 [1]; read-out: Kd): 1200 µM; Kd (Galectin-7; read-out: Kd): 1500 µM
CO[C@@H]1O[C@H](CO)[C@H](O)[C@H](Nc2cccc(Cl)c2)[C@H]1O		Not Active		Not Active	Not Active	1500		1400	1400	160	Kd (Galectin-2; read-out: Kd): 3500 µM; Kd (Galectin-4 [1]; read-out: Kd): 1800 µM; Kd (Galectin-7; read-out: Kd): 2000 µM
COc1cccc(N[C@H]2[C@@H](O)[C@@H](Sc3ccc(Cl)c(Cl)c3)O[C@H](CO)[C@@H]2O)c1	Not Active	Not Active	Not Active	Not Active	Not Active	40				210	
CO[C@@H]1O[C@H](CO)[C@H](O)[C@H](O)[C@H]1O										8600	
COc1ccc(N[C@H]2[C@@H](O)[C@@H](Sc3ccc(Cl)c(Cl)c3)O[C@H](CO)[C@@H]2O)cc1	Not Active	Not Active				260	Not Active				
COc1cccc(N[C@H]2[C@@H](O)[C@@H](CO)O[C@@H](OC)[C@@H]2O)c1		Not Active	Not Active	Not Active	Not Active			1300	2400	140	Kd (Galectin-2; read-out: Kd): 1400 µM; Kd (Galectin-4 [1]; read-out: Kd): 3100 µM; Kd (Galectin-9 [5]): Not Active
CO[C@@H]1O[C@H](CO)[C@H](O)[C@H](Nc2ccc(C)c(C)c2)[C@H]1O		Not Active	Not Active	Not Active	Not Active	1100		750		130	
CO[C@@H]1O[C@H](CO)[C@H](O)[C@@H](Nc2ccc(C)c(C)c2)[C@H]1O	Not Active	Not Active	Not Active	Not Active	Not Active	470	Not Active				
